Data: ChEMBL document CHEMBL1129831, “Novel 2,5-disubstituted-1H-pyrroles with high affinity for the dopamine D3 receptor: N-benzyl modifications” (Bioorg Med Chem Lett, 1997)

Legend:
[1] = target: Dopamine receptors; D2 & D3 (Homo sapiens) (UniProt P14416+P35462); experiment: Ratio of D3 receptor to the D2 receptor; type: protein assay
D(2) dopamine receptor = D(2) dopamine receptor (Homo sapiens, UniProt P14416); experiment: Binding affinity, displacement of [125I]iodosulpiride from human Dopamine receptor D2 expressed in CHO cells; type: cell-based
D(3) dopamine receptor = D(3) dopamine receptor (Homo sapiens, UniProt P35462); experiment: Binding affinity, displacement of [125I]iodosulpiride from human Dopamine receptor D3 expressed in CHO cells; type: cell-based
D(3) dopamine receptor, sequence (P35462 whole entry): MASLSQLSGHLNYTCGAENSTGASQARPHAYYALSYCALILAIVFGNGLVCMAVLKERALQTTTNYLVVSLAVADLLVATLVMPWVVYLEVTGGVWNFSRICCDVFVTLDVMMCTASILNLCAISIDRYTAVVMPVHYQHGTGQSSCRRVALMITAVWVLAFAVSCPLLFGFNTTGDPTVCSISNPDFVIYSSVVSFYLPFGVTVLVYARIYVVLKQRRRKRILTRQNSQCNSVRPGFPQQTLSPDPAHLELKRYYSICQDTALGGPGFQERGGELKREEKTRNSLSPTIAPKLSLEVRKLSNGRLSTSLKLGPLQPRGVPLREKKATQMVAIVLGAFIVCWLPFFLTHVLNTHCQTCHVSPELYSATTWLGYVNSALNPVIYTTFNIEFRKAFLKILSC

D(2) dopamine receptor, sequence (P14416 whole entry): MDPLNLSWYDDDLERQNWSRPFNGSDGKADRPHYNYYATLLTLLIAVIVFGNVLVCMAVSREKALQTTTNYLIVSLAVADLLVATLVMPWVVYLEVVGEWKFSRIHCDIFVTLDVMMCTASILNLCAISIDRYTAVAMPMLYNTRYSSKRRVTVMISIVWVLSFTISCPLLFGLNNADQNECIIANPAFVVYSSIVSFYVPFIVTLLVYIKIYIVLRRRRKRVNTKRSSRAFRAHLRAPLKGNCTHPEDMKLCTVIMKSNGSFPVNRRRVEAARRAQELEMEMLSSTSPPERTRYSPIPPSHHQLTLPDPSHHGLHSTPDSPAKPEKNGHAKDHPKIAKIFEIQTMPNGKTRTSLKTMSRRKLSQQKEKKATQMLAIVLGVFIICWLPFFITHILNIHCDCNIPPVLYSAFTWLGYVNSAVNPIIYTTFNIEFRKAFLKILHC

SMILES | Ratio [1] | Ki (D(2) dopamine receptor) | Ki (D(3) dopamine receptor)
CCN(Cc1ccc2c(c1)OCO2)Cc1ccc(-c2cc(S(=O)(=O)CC)ccc2OC)[nH]1 | 5 | 3.16 nM | 0.631 nM
CCS(=O)(=O)c1ccc(OC)c(-c2ccc(CN3CCc4ccccc4C3)[nH]2)c1 | 3 | 100 nM | 31.6 nM
CCN(Cc1ccc(Cl)cc1)Cc1ccc(-c2cc(S(=O)(=O)CC)ccc2OC)[nH]1 | 3 | 1 nM | 0.398 nM
CCN(Cc1ccc(-c2cc(S(=O)(=O)CC)ccc2OC)[nH]1)[C@@H](C)c1ccccc1 | 10 | 25.1 nM | 2.51 nM
CCS(=O)(=O)c1ccc(OC)c(-c2ccc(C3CCCN3Cc3ccccc3)[nH]2)c1 (stereo not drawn) | 4 | 39.8 nM | 10 nM
CCN(Cc1ccc(-c2cc(S(=O)(=O)CC)ccc2OC)[nH]1)C1CCCc2ccccc21 (stereo not drawn) | 3 | 12.6 nM | 5.01 nM
CCN(Cc1ccc(C)cc1)Cc1ccc(-c2cc(S(=O)(=O)CC)ccc2OC)[nH]1 | 2 | 0.398 nM | 0.2 nM
CCS(=O)(=O)c1ccc(OC)c(-c2ccc(CN3CCCCCC3c3ccccc3C)[nH]2)c1 (stereo not drawn) | 10 | 1260 nM | 100 nM
CCS(=O)(=O)c1ccc(OC)c(-c2ccc(CN3CCCCCC3c3ccccc3)[nH]2)c1 (stereo not drawn) | 30 |  | 
CCN(Cc1ccc(-c2cc(S(=O)(=O)CC)ccc2OC)[nH]1)C1CCc2ccccc21 (stereo not drawn) |  | 0.794 nM | 0.794 nM
CCS(=O)(=O)c1ccc(OC)c(-c2ccc(CN3CCCCCC3c3ccc(C)cc3)[nH]2)c1 (stereo not drawn) | 30 | 25.1 nM | 0.794 nM
CCN(Cc1ccccc1)Cc1ccc(-c2cc(S(=O)(=O)CC)ccc2OC)[nH]1 | 3 |  | 

Second part, the compound after the results:

Ratio [1] | Ki (D(2) dopamine receptor) | Ki (D(3) dopamine receptor) | SMILES
5 | 7.94 nM | 1.58 nM | CCN(Cc1cccc(C)c1)Cc1ccc(-c2cc(S(=O)(=O)CC)ccc2OC)[nH]1
8 | 2 nM | 0.251 nM | CCN(Cc1ccc(OC)cc1)Cc1ccc(-c2cc(S(=O)(=O)CC)ccc2OC)[nH]1
2 | 6.31 nM | 3.16 nM | CCN(Cc1ccc(-c2cc(S(=O)(=O)CC)ccc2OC)[nH]1)Cc1ccccc1C
 | 158 nM | 100 nM | CCN1[C@@H](c2ccc(-c3cc(S(=O)(=O)CC)ccc3OC)[nH]2)CC[C@H]1c1ccccc1
15 | 794 nM | 50.1 nM | CCS(=O)(=O)c1ccc(OC)c(-c2ccc(CN3CCCCCC3c3cccc(OC)c3)[nH]2)c1 (stereo not drawn)
3 | 31.6 nM | 12.6 nM | CCN(Cc1ccc(OC)c(OC)c1)Cc1ccc(-c2cc(S(=O)(=O)CC)ccc2OC)[nH]1
4 | 10 nM | 2.51 nM | CCN(Cc1cccc(Cl)c1)Cc1ccc(-c2cc(S(=O)(=O)CC)ccc2OC)[nH]1
10 | 7.94 nM | 0.794 nM | CCN(Cc1ccc(-c2cc(S(=O)(=O)CC)ccc2OC)[nH]1)[C@H](C)c1ccccc1
4 | 39.8 nM | 10 nM | CCN1[C@H](c2ccccc2)CC[C@H]1c1ccc(-c2cc(S(=O)(=O)CC)ccc2OC)[nH]1
 | 15.8 nM | 10 nM | CCN(Cc1ccc(-c2cc(S(=O)(=O)CC)ccc2OC)[nH]1)Cc1ccccc1OC
10 | 79.4 nM | 7.94 nM | CCN(Cc1cccc(OC)c1)Cc1ccc(-c2cc(S(=O)(=O)CC)ccc2OC)[nH]1
15 | 25.1 nM | 1.58 nM | CCS(=O)(=O)c1ccc(OC)c(-c2ccc(CN3CCCCCC3c3ccc(OC)cc3)[nH]2)c1 (stereo not drawn)
3 | 20 nM | 6.31 nM | CCN(Cc1ccc(-c2cc(S(=O)(=O)CC)ccc2OC)[nH]1)Cc1ccccc1Cl
